The IC50 is the midpoint of a concentration-inhibition curve.

This assay has as its system RBL-2H3. Nature of the assay: Inhibition of DNP-BSA-induced degranulation in rat RBL2H3 cells assessed as reduction in beta-hexosaminidase release after 20 mins by spectrophotometry. Format: functional, cell-based. The following applies: RBL-2H3, 20 min.
As to `C=CC(/C=C/c1ccc(O)cc1)c1ccc(O)cc1` (stereo not given), the IC50 was found to be 55.2 µM.

Take `C=CC(CC(=O)c1ccc(OC)cc1)c1ccc(OC)cc1` (stereo not given): the IC50 stood at 88.5 µM.

Turning to `C=CC(CC(=O)c1ccc(O)cc1)c1cccc(O)c1` (stereo not given), the IC50 is 18.3 µM.

On to `C=CC(CC(=O)c1ccc(OC)cc1)c1cccc(OC)c1` (stereo not given), for which the IC50 turned out to be 85.4 µM.

On to `C=CC(CC(=O)c1ccc(O)cc1)c1cccc(OC)c1` (stereo not given), for which the IC50 is 17.9 µM.

In the case of `C=CC(CC(=O)c1ccc(OC)cc1)c1cccc(O)c1` (stereo not given), the IC50 came out at 90.5 µM.

For `C=CC(CC(O)c1ccc(O)cc1)c1ccc(O)cc1` (stereo not given), the IC50 is greater than 200 µM.

In the case of `C=CC(CC(O)c1ccc(OC)cc1)c1ccc(OC)cc1` (stereo not given), the IC50 was greater than 200 µM.

For the compound `C=CC(CC(O)c1ccc(O)cc1)c1cccc(O)c1` (stereo not given), the IC50 was determined as 34.1 µM.

With `C=CC(CC(O)c1ccc(OC)cc1)c1cccc(OC)c1` (stereo not given), the IC50 was greater than 200 µM.

Turning to `C=CC(/C=C/c1ccc(OC)cc1)c1ccc(OC)cc1` (stereo not given), the IC50 was greater than 200 µM.

With `C=CC(/C=C/c1ccc(O)cc1)c1cccc(O)c1` (stereo not given), the IC50 was determined as 55.6 µM.

`C=CC(/C=C/c1ccc(OC)cc1)c1cccc(OC)c1` (stereo not given): the IC50 is greater than 200 µM.

In the case of `C=CC(CC(=O)c1ccc(O)cc1)c1ccc(O)cc1` (stereo not given), the IC50 came out at 34.6 µM.

As for `CN1CCC(=C2c3ccccc3CC(=O)c3sccc32)CC1` [KETOTIFEN], the IC50 amounted to 35.2 µM.

The values are drawn from ChEMBL document CHEMBL2029333, “Synthesis of norlignans and in vitro inhibitory activity of antigen-induced degranulation” (Bioorg Med Chem Lett, 2012).
